Drawing on US8192761B2, “Granular preparation containing biguanide compound” (Dainippon Sumitomo Pharma Co., Ltd., priority 2005, dated 2012), this text covers solidification-preventive effect for 6 compounds.

This data set in a line: Stability testing: appearance (solidification) of fine granules after storage in tightly sealed glass containers. It counts as physicochemical. The note with it: additive added to metformin hydrochloride fine granules, 40° C. The protocol:
Using fine granules obtained in Examples 1-14 and Comparative Examples 1-16, a stability testing was performed. Fine granules (5 g) were each placed in glass containers, which were tightly sealed and stored at 40° C. for 1 week.
Appearance of metformin hydrochloride fine granules after storage at 40° C. for 1 week
magnesium stearate: the solidification-preventive effect result is recorded as “a solidification-preventive effect was observed”.

In the case of calcium stearate, the solidification-preventive effect result is reported as “did not show a solidification-preventive effect”. On to `O=C([O-])[O-].[Ca+2]` [calcium carbonate], for which the solidification-preventive effect entry is “did not show a solidification-preventive effect”. The entry for `O=P([O-])([O-])O.[Ca+2]` [anhydrous dibasic calcium phosphate] is “did not show a solidification-preventive effect”; for `[Ca+2].[Cl-].[Cl-]` [calcium chloride] it is “a solidification-preventive effect was observed”; for `OC[C@H]1O[C@@H](O[C@H]2[C@H](O)[C@@H](O)C(O)O[C@@H]2CO)[C@H](O)[C@@H](O)[C@H]1O` (stereo partly drawn) [lactose] it is “did not show a solidification-preventive effect”.
